Assay results: patent US20040259179A1, “Sterol markers as diagnostic tools in the prevention of atherosclerotic diseases and as tools to aid in the selection of agents to be used for the prevention and treatment of atherosclerotic disease” (priority 2003, published 2004)
Marks after values point to notes of the source that are not given here.

Legend:
Format in all cases: in vivo, human
[1] = test system: patients with primary hypercholesterolemia; experiment: Non-cholesterol sterol analysis of plasma by GC-MS, EZE/SIMVA trial (Example 2); conditions: for effect on concentrations of sitosterol and campesterol (baseline to endpoint), in words: FIG. 6; for Campesterol Ratio: Mean change (sterol:cholesterol) / Desmosterol Ratio: Mean change (sterol:cholesterol) / Lathosterol Ratio: Mean change (sterol:cholesterol) / Sitosterol Ratio: Mean change (sterol:cholesterol) / Campesterol % change (Mean % change) / Desmosterol % change (Mean % change) / Lathosterol % change (Mean % change) / Sitosterol % change (Mean % change): baseline to endpoint, 12 weeks daily treatment, EZE 10 mg; for Campesterol Ratio: Mean change (sterol:cholesterol) / Desmosterol Ratio: Mean change (sterol:cholesterol) / Lathosterol Ratio: Mean change (sterol:cholesterol) / Sitosterol Ratio: Mean change (sterol:cholesterol) / Campesterol % change (Mean % change) / Desmosterol % change (Mean % change) / Lathosterol % change (Mean % change): SIMVA pool of all doses; for Campesterol % change (Mean % change) / Desmosterol % change (Mean % change) / Lathosterol % change (Mean % change) / Sitosterol % change (Mean % change): plasma concentration; for Sitosterol % change (Mean % change): SIMVA pool of all doses 10-80 mg
Description: (§1) A post-hoc analysis of a randomized, double-blind, placebo-controlled trial of primary hypercholesterolemia patients (LDL-C 145-250 mg/dl and TG≦350 mg/dl) was conducted to examine the effects of 12 weeks of daily treatment with ezetimibe (EZE) 10 mg, simvastatin (SIMVA) pooled doses 10-80 mg, or EZE 10 mg/SIMVA 10-80 mg (EZE/SIMVA) coadministration (pooled) on concentrations of phytosterols (sitosterol and campesterol) and cholesterol precursors (lathosterol and desmosterol). Baseline and endpoint plasma samples of 578 patients were analyzed by GC-mass spectrometry
Following a 4 week placebo lead-in/diet phase, patients with primary hypercholesterolemia (LDL-C 145-250 mg/dL and TG≦350 mg/dL) were randomized on one of the following daily treatments for 12 weeks:
Of 668 patients randomized to treatment in the original study, 578 (86%) had evaluable −70° C. plasma samples for both baseline and endpoint visits. Concentrations of non-cholesterol sterols were measured by gas chromatography-mass spectrometry (GC-MS).
(§2) The primary efficacy parameter was mean percent change in plasma sitosterol concentration from baseline to endpoint comparing EZE/SIMVA (pooled across doses) versus SIMVA monotherapy (pooled across doses). Other efficacy parameters included mean percent changes in campesterol, lathosterol and desmosterol concentrations as well as mean changes in the ratios of each of these sterols to cholesterol.
(§3) Two-tailed testing was conducted at a=0.05. To compare treatment effects on sterol concentrations and ratios, an ANCOVA model including the fixed effects of treatment, dose, and dose-by-treatment interaction was used with the baseline value as the covariate.

[2] = test system: patients with primary hypercholesterolemia; experiment: LDL-C and other lipid parameters by treatment, EZE/SIMVA trial (Example 2); conditions: 12 weeks daily treatment, EZE 10 mg, pooled SIMVA 10-80 mg; for Triglycerides (median) % Change (±SE) from Baseline: median and SE from raw data
Description: as §1
Following a 4 week placebo lead-in/diet phase, patients with primary hypercholesterolemia (LDL-C 145-250 mg/dL and TG≦350 mg/dL) were randomized on one of the following daily treatments for 12 weeks: […]

[3] = test system: patients with primary hypercholesterolemia; experiment: Non-cholesterol sterol analysis of plasma by GC-MS, EZE/ATORVA trial (Example 3); conditions: for effect on concentrations of sitosterol and campesterol (baseline to endpoint), in words: FIG. 11; for effect on concentrations of sitosterol and campesterol (baseline to endpoint), in words / effect on concentrations of cholesterol precursors lathosterol and desmosterol (baseline to endpoint), in words / effect on ratios of sitosterol:cholesterol and campesterol:cholesterol, in words / effect on ratios of lathosterol:cholesterol and desmosterol:cholesterol, in words: pooled doses, 12 weeks; for effect on concentrations of cholesterol precursors lathosterol and desmosterol (baseline to endpoint), in words: FIG. 13; for effect on ratios of sitosterol:cholesterol and campesterol:cholesterol, in words: Table in FIG. 11; for effect on ratios of lathosterol:cholesterol and desmosterol:cholesterol, in words: Table in FIG. 13; for Campesterol Noncholesterols:Cholesterol Ratio: Mean change / Desmosterol Noncholesterols:Cholesterol Ratio: Mean change / Lathosterol Noncholesterols:Cholesterol Ratio: Mean change / Sitosterol Noncholesterols:Cholesterol Ratio: Mean change / Campesterol % chng LSmean (absolute sterol concentrations) / Desmosterol % chng LSmean (absolute sterol concentrations) / Lathosterol % chng LSmean (absolute sterol concentrations) / Sitosterol % chng LSmean (absolute sterol concentrations): baseline to endpoint, 12 weeks daily treatment, EZE 10 mg, ATORVA pooled; for Campesterol % chng LSmean (absolute sterol concentrations) / Desmosterol % chng LSmean (absolute sterol concentrations) / Lathosterol % chng LSmean (absolute sterol concentrations) / Sitosterol % chng LSmean (absolute sterol concentrations): plasma
Description: (§4) A post-hoc analysis of a randomized, double-blind, placebo-controlled trial of primary hypercholesterolemia patients (LDL-C 145-250 mg/dl and TG<350 mg/dl) was conducted. Baseline and endpoint samples of 397 patients were analyzed by GCMS
In this trial, following a 4 week placebo lead-in/diet phase, patients with primary hypercholesterolemia (LDL-C 3.8-6.5 mmol/L [145-250 mg/dL] and TG≦4 mmol/L [350 mg/dL]) were randomized to one of the following daily treatments for 12 weeks:
Of 628 patients randomized to treatment in the original study, 397 (63%) had evaluable −70° C. plasma samples for both baseline and endpoint visits.
Concentrations of non-cholesterol sterols were measured by gas chromatography-mass spectrometry (GC-MS).
as §2, with “EZE/ATORVA” for “EZE/SIMVA”, “ATORVA” for “SIMVA monotherapy”
as §3

[4] = test system: patients with primary hypercholesterolemia; experiment: LDL-C and other lipid parameters by treatment, EZE/ATORVA trial (Example 3); conditions: 12 weeks daily treatment, EZE 10 mg, pooled ATORVA 10-80 mg; for Triglycerides (median) % Change (±SE) from Baseline: median and SE from raw data
Description: as §4
In this trial, following a 4 week placebo lead-in/diet phase, patients with primary hypercholesterolemia (LDL-C 3.8-6.5 mmol/L [145-250 mg/dL] and TG≦4 mmol/L [350 mg/dL]) were randomized to one of the following daily treatments for 12 weeks: […]

| SMILES | effect on concentrations of sitosterol and campesterol (baseline to endpoint), in words ([1]; pooled doses, 12 weeks) | Campesterol Ratio: Mean change (sterol:cholesterol) [1] | Desmosterol Ratio: Mean change (sterol:cholesterol) [1] | Lathosterol Ratio: Mean change (sterol:cholesterol) [1] | Sitosterol Ratio: Mean change (sterol:cholesterol) [1] | Campesterol % change (Mean % change) [1] | Desmosterol % change (Mean % change) [1] | Lathosterol % change (Mean % change) [1] | Sitosterol % change (Mean % change) [1] | HDL-C LS Mean % Change (±SE) from Baseline [2] [%] | LDL-C LS Mean % Change (±SE) from Baseline [2] [%] | Total Cholesterol LS Mean % Change (±SE) from Baseline [2] [%] | Triglycerides (median) % Change (±SE) from Baseline [2] [%] | effect on concentrations of sitosterol and campesterol (baseline to endpoint), in words [3] | effect on concentrations of cholesterol precursors lathosterol and desmosterol (baseline to endpoint), in words [3] | effect on ratios of sitosterol:cholesterol and campesterol:cholesterol, in words [3] | effect on ratios of lathosterol:cholesterol and desmosterol:cholesterol, in words [3] | Campesterol Noncholesterols:Cholesterol Ratio: Mean change [3] | Desmosterol Noncholesterols:Cholesterol Ratio: Mean change [3] | Lathosterol Noncholesterols:Cholesterol Ratio: Mean change [3] | further results |
| --- | --- | --- | --- | --- | --- | --- | --- | --- | --- | --- | --- | --- | --- | --- | --- | --- | --- | --- | --- | --- | --- |
| O=C1[C@H](CC[C@H](O)c2ccc(F)cc2)[C@@H](c2ccc(O)cc2)N1c1ccc(F)cc1 [EZE, ezetimibe] | large, significant reductions | −78.6* 10^2 mmol/mol | 25.7* 10^2 mmol/mol | 36.8* 10^2 mmol/mol | −37.8* 10^2 mmol/mol | −50.5* % | 16.1% | 35.5* % | −46.5* % | 5.5 ± 1.6 | −18.5 ± 1.8 | −13.5 ± 1.4 | −8.6 ± 3.9 | large, significant reductions | significantly increased | significantly reduced | increased | −151* 10^2 mmol/mol | 38.1 10^2 mmol/mol | 56.2* 10^2 mmol/mol | effect on concentrations of cholesterol precursors lathosterol and desmosterol (baseline to endpoint), in words ([1]; FIG. 8, pooled doses, 12 weeks): increased; effect on ratios of sitosterol:cholesterol and campesterol:cholesterol, in words ([1]; Table in FIG. 6, pooled doses, 12 weeks): significantly reduced; effect on ratios of lathosterol:cholesterol and desmosterol:cholesterol, in words ([1]; Table in FIG. 8, pooled doses, 12 weeks): significantly increased; Sitosterol Noncholesterols:Cholesterol Ratio: Mean change [3]: −70.1* 10^2 mmol/mol; Campesterol % chng LSmean (absolute sterol concentrations) [3]: −58.2* %; Desmosterol % chng LSmean (absolute sterol concentrations) [3]: 20.6* %; Lathosterol % chng LSmean (absolute sterol concentrations) [3]: 34.5* %; Sitosterol % chng LSmean (absolute sterol concentrations) [3]: −53.8* %; HDL-C LS Mean % Change (±SE) from Baseline [4]: 5.36 (1.71) %; LDL-C LS Mean % Change (±SE) from Baseline [4]: −17.10 (2.06) %; Total Cholesterol LS Mean % Change (±SE) from Baseline [4]: −12.97 (1.63) %; Triglycerides (median) % Change (±SE) from Baseline [4]: −2.86 (4.54) % |
| CC(C)c1c(C(=O)Nc2ccccc2)c(-c2ccccc2)c(-c2ccc(F)cc2)n1CC[C@@H](O)C[C@@H](O)CC(=O)O [ATORVA, atorvastatin] |  |  |  |  |  |  |  |  |  |  |  |  |  | significantly increased | large, significant reductions | significantly increased | significantly reduced | 128*^† 10^2 mmol/mol | −34.5*^† 10^2 mmol/mol | −69.8*^† 10^2 mmol/mol | Sitosterol Noncholesterols:Cholesterol Ratio: Mean change [3]: 77.4*^† 10^2 mmol/mol; Campesterol % chng LSmean (absolute sterol concentrations) [3]: 10.1^† %; Desmosterol % chng LSmean (absolute sterol concentrations) [3]: −55.4*^† %; Lathosterol % chng LSmean (absolute sterol concentrations) [3]: −69.0*^† %; Sitosterol % chng LSmean (absolute sterol concentrations) [3]: 16.1^† %; HDL-C LS Mean % Change (±SE) from Baseline [4]: 5.21 (0.85) %; LDL-C LS Mean % Change (±SE) from Baseline [4]: −43.56 (1.02) %; Total Cholesterol LS Mean % Change (±SE) from Baseline [4]: −32.96 (0.81) %; Triglycerides (median) % Change (±SE) from Baseline [4]: −25.83 (1.80) % |
| CCC(C)(C)C(=O)O[C@H]1C[C@@H](C)C=C2C=C[C@H](C)[C@H](CC[C@@H]3C[C@@H](O)CC(=O)O3)[C@H]21 [SIMVA, simvastatin] | no significant effect | 39.8* 10^2 mmol/mol | −22.8* 10^2 mmol/mol | −37.8* 10^2 mmol/mol | 21.4* 10^2 mmol/mol | −1.6* % | −48.0* % | −53.5* % | −3.3* % | 7.2 ± 0.8 | −37.1 ± 0.9 | −26.8 ± 0.7 | −20.4 ± 1.5 |  |  |  |  |  |  |  |  |
